Key:
[1] = 81.5 kPa, Liquid; for viscosity: Capillary tube (Ostwald / Ubbelohde) method
[2] = refractive index (Na D-line) (dimensionless); conditions: 298.15 K; 101.33 kPa; Liquid; Standard Abbe refractometry
[3] = refractive index (Na D-line) (dimensionless); xn = mol fraction of the nth substance listed; conditions: 303.15 K, 81.5 kPa, Liquid
[4] = xn = mol fraction of the nth substance listed; conditions: 81.5 kPa, Liquid; for viscosity: Capillary tube (Ostwald / Ubbelohde) method

CO [methanol]
[1]
Conditions | mass density [kg/m3] | viscosity [mPa·s]
298.15 K | 786.57 | –
303.15 K | 781.85 | 0.525
308.15 K | 777.1 | –

Conditions | refractive index
[2] | 1.327

CC(O)CO (stereo not drawn) [1,2-propanediol] + CCO
[3]
Conditions | refractive index
x2 = 0.0738 | 1.426
x2 = 0.1285 | 1.4233
x2 = 0.2099 | 1.4187
x2 = 0.2725 | 1.4153
x2 = 0.3701 | 1.4093
x2 = 0.4389 | 1.4052
x2 = 0.5193 | 1.3998
x2 = 0.5871 | 1.3946
x2 = 0.678 | 1.3876
x2 = 0.7554 | 1.3817
x2 = 0.8185 | 1.3765
x2 = 0.9171 | 1.3672

[4]
Conditions | mass density, 298.15 K [kg/m3] | mass density, 303.15 K [kg/m3] | mass density, 308.15 K [kg/m3] | viscosity, 303.15 K [mPa·s]
x2 = 0.0492 | 1023.64 | 1019.91 | 1016.16 | –
x2 = 0.0738 | – | – | – | 25.01
x2 = 0.122 | 1009.9 | 1006.14 | 1002.31 | –
x2 = 0.1285 | – | – | – | 20.47
x2 = 0.2072 | 993.05 | 989.22 | 985.36 | –
x2 = 0.2099 | – | – | – | 15.2
x2 = 0.2706 | 979.89 | 976.03 | 972.12 | –
x2 = 0.2725 | – | – | – | 12.14
x2 = 0.3633 | 959.86 | 955.92 | 951.97 | –
x2 = 0.3701 | – | – | – | 8.55
x2 = 0.4389 | – | – | – | 6.68
x2 = 0.4478 | 940.7 | 936.73 | 932.7 | –
x2 = 0.5193 | – | – | – | 5.03
x2 = 0.5261 | 921.85 | 917.81 | 913.76 | –
x2 = 0.5871 | – | – | – | 3.98
x2 = 0.6103 | 900.63 | 896.55 | 892.41 | –
x2 = 0.677 | 882.99 | 878.84 | 874.69 | –
x2 = 0.678 | – | – | – | 2.9
x2 = 0.7554 | – | – | – | 2.23
x2 = 0.7613 | 859.54 | 855.37 | 851.13 | –
x2 = 0.8185 | – | – | – | 1.8
x2 = 0.8332 | 838.49 | 834.25 | 829.99 | –
x2 = 0.9171 | – | – | – | 1.29
x2 = 0.9232 | 810.57 | 806.3 | 801.98 | –

CC(O)CO (stereo not drawn) [1,2-propanediol] + CO
[3]
Conditions | refractive index
x2 = 0.0688 | 1.4262
x2 = 0.1545 | 1.422
x2 = 0.2606 | 1.4155
x2 = 0.3086 | 1.4129
x2 = 0.3666 | 1.4096
x2 = 0.4494 | 1.4029
x2 = 0.51 | 1.3983
x2 = 0.6098 | 1.3883
x2 = 0.6811 | 1.3783
x2 = 0.7687 | 1.3665
x2 = 0.8363 | 1.3571
x2 = 0.9225 | 1.3404

[4]
Conditions | mass density, 298.15 K [kg/m3] | mass density, 303.15 K [kg/m3] | mass density, 308.15 K [kg/m3] | viscosity, 303.15 K [mPa·s]
x2 = 0 | 1032.61 | 1028.9 | 1025.16 | –
x2 = 0.0533 | 1026.26 | 1022.52 | 1018.75 | –
x2 = 0.0688 | – | – | – | 25.51
x2 = 0.1319 | 1016.21 | 1012.45 | 1008.64 | –
x2 = 0.1545 | – | – | – | 18.49
x2 = 0.2246 | 1003.13 | 999.31 | 995.47 | –
x2 = 0.2606 | – | – | – | 12.31
x2 = 0.282 | 994.24 | 990.39 | 986.48 | –
x2 = 0.3086 | – | – | – | 10.21
x2 = 0.3666 | – | – | – | 8.11
x2 = 0.3841 | 976.76 | 972.84 | 968.91 | –
x2 = 0.4494 | – | – | – | 5.81
x2 = 0.4496 | 964.21 | 960.26 | 956.25 | –
x2 = 0.51 | – | – | – | 4.54
x2 = 0.53 | 947.16 | 943.12 | 939.07 | –
x2 = 0.6083 | 928.51 | 924.41 | 920.25 | –
x2 = 0.6098 | – | – | – | 2.99
x2 = 0.6811 | – | – | – | 2.21
x2 = 0.7006 | 903.39 | 899.17 | 894.96 | –
x2 = 0.7601 | 884.96 | 880.67 | 876.35 | –
x2 = 0.7687 | – | – | – | 1.51
x2 = 0.8363 | – | – | – | 1.11
x2 = 0.8454 | 855.03 | 850.61 | 846.16 | –
x2 = 0.9133 | 827.35 | 823.02 | 818.45 | –
x2 = 0.9225 | – | – | – | 0.75

CO [methanol] + CC(O)CO
[4], x1 = 1
Conditions | mass density [kg/m3]
298.15 K | 786.57
303.15 K | 781.85
308.15 K | 777.1

CCO [ethanol]
[1]
Conditions | mass density [kg/m3] | viscosity [mPa·s]
298.15 K | 785.18 | –
303.15 K | 780.87 | 0.994
308.15 K | 776.52 | –

Conditions | refractive index
[2] | 1.3595

CCO [ethanol] + CC(O)CO
[4], x1 = 1
Conditions | mass density [kg/m3]
298.15 K | 785.18
303.15 K | 780.87
308.15 K | 776.52

CC(O)CO (stereo not drawn) [1,2-propanediol]
[1]
Conditions | mass density [kg/m3] | viscosity [mPa·s]
298.15 K | 1032.61 | –
303.15 K | 1028.9 | 33.88
308.15 K | 1025.16 | –

Conditions | refractive index
[2] | 1.4323

CO [methanol] + CCO
[3]
Conditions | refractive index
x1 = 0.0417 | 1.3567
x1 = 0.1476 | 1.3541
x1 = 0.2214 | 1.3522
x1 = 0.2952 | 1.3502
x1 = 0.3644 | 1.3485
x1 = 0.4488 | 1.3462
x1 = 0.529 | 1.3437
x1 = 0.5995 | 1.3415
x1 = 0.6859 | 1.3385
x1 = 0.7442 | 1.3363
x1 = 0.832 | 1.3328
x1 = 0.9166 | 1.3286

[4], 303.15 K
Conditions | viscosity [mPa·s]
x1 = 0.0417 | 0.968
x1 = 0.1476 | 0.906
x1 = 0.2214 | 0.865
x1 = 0.2952 | 0.828
x1 = 0.3644 | 0.793
x1 = 0.4488 | 0.753
x1 = 0.529 | 0.717
x1 = 0.5995 | 0.685
x1 = 0.6859 | 0.648
x1 = 0.7442 | 0.624
x1 = 0.832 | 0.588
x1 = 0.9166 | 0.556
